What was measured:
[1] = molecular target: T1, Alpha-2B adrenergic receptor (Homo sapiens, UniProt P18089)
T1 sequence (P18089 whole entry): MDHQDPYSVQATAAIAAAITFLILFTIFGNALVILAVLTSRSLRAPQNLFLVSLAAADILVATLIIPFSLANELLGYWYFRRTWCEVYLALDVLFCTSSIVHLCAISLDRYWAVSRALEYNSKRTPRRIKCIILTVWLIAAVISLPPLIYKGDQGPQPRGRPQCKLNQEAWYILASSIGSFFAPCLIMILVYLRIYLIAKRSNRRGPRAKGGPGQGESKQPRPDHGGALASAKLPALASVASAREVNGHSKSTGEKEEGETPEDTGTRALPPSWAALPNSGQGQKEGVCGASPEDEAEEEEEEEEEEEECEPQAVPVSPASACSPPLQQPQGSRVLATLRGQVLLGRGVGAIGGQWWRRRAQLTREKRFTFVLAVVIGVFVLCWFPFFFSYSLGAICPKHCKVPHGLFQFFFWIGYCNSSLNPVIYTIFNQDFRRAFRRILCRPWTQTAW

[2] = molecular target: Voltage-dependent L-type calcium channel subunit alpha-1C (Rattus norvegicus, UniProt P22002); assay type: functional
Sequence of Voltage-dependent L-type calcium channel subunit alpha-1C (P22002 whole entry): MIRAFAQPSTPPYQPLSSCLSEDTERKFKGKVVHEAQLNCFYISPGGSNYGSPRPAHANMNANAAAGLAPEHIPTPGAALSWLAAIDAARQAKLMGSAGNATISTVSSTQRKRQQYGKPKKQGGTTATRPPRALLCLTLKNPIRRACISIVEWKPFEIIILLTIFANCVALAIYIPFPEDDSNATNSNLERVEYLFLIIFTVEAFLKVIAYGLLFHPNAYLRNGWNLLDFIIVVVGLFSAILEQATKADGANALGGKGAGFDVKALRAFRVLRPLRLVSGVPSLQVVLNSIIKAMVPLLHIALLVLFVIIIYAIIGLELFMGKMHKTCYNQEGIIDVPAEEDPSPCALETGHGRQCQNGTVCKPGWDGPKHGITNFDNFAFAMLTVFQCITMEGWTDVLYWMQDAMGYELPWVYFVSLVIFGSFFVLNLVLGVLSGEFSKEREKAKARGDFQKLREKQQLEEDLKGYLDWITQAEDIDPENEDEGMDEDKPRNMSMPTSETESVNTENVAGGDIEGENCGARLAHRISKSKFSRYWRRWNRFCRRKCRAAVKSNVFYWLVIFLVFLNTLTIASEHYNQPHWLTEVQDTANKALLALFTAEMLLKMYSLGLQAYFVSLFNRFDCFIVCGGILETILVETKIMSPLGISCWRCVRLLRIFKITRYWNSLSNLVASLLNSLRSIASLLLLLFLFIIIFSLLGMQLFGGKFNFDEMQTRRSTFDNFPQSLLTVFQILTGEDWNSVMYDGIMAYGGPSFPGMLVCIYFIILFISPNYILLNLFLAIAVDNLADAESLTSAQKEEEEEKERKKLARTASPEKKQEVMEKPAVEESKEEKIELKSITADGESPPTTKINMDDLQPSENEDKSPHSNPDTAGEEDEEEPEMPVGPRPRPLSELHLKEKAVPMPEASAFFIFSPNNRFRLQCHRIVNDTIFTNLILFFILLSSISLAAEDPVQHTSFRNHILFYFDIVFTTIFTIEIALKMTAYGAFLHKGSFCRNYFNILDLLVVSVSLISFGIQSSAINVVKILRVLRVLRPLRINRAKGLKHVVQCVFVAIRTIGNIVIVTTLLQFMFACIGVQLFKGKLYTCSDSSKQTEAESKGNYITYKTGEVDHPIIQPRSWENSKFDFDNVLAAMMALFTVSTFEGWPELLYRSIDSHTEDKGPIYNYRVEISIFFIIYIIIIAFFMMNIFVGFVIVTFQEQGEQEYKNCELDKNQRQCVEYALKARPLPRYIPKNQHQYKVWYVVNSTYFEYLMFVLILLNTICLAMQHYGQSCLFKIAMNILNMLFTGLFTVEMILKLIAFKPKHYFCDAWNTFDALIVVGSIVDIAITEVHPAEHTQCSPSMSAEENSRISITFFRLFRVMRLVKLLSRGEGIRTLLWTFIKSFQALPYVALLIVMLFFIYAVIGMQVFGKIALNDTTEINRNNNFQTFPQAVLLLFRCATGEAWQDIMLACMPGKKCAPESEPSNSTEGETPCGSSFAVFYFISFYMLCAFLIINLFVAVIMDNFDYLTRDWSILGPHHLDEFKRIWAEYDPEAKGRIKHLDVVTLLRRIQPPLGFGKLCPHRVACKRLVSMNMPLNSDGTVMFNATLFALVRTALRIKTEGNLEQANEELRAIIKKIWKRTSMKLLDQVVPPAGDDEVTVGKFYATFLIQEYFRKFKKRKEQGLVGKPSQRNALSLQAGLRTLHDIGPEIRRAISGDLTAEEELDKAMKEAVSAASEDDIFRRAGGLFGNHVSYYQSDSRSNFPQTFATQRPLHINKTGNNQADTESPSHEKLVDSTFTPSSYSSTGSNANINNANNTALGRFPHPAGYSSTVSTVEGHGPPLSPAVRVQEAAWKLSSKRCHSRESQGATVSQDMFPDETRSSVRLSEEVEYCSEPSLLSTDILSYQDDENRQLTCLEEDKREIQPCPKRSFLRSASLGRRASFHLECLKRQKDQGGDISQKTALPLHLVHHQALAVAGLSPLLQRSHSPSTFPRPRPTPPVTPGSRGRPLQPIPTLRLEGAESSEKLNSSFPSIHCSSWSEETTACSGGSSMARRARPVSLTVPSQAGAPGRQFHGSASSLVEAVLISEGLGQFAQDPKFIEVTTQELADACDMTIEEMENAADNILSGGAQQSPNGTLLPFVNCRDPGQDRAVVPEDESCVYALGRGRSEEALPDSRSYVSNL

[3] = molecular target: T2, Cholecystokinin receptor type A (Homo sapiens, UniProt P32238)
T2 sequence (P32238 whole entry): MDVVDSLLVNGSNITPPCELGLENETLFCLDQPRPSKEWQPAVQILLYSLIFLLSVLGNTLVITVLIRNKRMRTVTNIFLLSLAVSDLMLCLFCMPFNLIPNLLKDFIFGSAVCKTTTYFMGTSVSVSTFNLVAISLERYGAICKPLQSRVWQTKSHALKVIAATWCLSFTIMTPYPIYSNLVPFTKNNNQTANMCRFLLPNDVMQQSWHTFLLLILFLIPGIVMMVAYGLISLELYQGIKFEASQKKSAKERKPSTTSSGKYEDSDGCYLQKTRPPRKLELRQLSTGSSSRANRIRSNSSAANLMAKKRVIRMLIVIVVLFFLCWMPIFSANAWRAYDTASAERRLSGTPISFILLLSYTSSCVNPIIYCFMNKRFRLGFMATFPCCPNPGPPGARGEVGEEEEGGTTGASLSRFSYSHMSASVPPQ

[4] = molecular target: 5-hydroxytryptamine receptor 2B (Homo sapiens, UniProt P41595); assay type: functional, cell-based
Sequence of 5-hydroxytryptamine receptor 2B (P41595 whole entry): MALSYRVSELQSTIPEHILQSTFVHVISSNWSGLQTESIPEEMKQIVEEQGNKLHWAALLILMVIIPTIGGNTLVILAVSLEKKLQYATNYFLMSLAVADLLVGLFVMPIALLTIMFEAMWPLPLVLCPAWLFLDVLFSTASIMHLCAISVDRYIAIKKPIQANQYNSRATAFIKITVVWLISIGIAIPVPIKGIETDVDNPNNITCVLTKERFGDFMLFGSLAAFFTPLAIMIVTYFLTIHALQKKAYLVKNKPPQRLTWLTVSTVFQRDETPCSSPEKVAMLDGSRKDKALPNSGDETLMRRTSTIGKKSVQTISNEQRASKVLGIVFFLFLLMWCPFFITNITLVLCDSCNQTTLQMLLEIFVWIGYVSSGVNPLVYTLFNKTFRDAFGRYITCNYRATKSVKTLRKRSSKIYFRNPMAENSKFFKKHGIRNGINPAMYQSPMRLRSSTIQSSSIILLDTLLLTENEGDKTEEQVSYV

[5] = molecular target: T3, 5-hydroxytryptamine receptor 3A (Homo sapiens, UniProt P46098); assay type: functional
T3 sequence (P46098 whole entry): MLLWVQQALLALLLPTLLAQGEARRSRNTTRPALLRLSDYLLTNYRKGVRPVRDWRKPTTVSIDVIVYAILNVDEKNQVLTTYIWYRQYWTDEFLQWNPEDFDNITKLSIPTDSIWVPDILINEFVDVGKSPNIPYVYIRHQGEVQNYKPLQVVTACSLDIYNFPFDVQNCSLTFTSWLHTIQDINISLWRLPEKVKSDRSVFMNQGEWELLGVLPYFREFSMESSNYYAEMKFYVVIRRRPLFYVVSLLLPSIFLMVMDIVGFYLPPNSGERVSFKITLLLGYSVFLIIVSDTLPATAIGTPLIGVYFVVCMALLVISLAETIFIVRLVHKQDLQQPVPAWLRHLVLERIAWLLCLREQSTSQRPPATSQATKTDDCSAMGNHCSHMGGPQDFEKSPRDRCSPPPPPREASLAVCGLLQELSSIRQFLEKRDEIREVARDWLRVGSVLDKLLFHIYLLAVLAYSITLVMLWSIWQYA

Progesterone receptor = molecular target: T4, Progesterone receptor (Homo sapiens, UniProt P06401); assay type: functional
T4 sequence (P06401 whole entry): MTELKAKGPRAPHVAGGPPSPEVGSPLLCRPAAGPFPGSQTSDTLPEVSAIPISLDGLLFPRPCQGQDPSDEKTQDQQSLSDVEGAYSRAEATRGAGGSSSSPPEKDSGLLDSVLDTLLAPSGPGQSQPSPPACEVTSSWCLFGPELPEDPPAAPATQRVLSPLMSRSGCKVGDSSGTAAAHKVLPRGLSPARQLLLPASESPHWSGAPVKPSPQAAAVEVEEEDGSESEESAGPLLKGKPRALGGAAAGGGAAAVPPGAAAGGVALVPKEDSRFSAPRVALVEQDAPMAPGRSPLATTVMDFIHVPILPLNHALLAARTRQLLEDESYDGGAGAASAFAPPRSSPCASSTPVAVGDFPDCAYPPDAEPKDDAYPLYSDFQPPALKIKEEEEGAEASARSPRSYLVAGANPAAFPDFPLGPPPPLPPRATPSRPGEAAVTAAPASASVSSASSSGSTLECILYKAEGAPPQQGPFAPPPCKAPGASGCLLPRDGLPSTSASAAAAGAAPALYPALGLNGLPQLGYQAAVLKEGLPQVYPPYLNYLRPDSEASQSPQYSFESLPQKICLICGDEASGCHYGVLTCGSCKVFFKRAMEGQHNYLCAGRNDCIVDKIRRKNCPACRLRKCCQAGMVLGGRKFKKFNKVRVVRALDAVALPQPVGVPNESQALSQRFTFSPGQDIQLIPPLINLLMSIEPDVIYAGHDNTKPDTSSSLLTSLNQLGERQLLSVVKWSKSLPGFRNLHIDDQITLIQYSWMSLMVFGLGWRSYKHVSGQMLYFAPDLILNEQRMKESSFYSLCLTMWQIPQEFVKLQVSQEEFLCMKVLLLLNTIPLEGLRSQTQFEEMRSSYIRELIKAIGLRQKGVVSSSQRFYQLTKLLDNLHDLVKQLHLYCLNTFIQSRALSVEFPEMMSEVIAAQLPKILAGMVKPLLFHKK

[6] = molecular target: T5, Alpha-1A adrenergic receptor (Homo sapiens, UniProt P35348); assay type: functional, cell-based
T5 sequence (P35348 whole entry): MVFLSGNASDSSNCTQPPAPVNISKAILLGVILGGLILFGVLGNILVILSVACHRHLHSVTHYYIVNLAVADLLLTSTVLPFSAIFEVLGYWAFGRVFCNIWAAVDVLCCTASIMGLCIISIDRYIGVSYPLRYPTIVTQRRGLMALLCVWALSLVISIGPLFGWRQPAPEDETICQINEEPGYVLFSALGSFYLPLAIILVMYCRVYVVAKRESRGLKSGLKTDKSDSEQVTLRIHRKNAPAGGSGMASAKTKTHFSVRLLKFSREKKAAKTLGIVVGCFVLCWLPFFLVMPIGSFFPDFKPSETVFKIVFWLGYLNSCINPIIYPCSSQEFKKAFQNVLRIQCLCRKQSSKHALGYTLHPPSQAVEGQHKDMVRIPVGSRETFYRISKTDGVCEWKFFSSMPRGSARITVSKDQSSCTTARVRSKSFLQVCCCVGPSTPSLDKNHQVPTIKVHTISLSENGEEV
Note: assay procedure not described here.

SMILES	AC50 [1]	AC50 [2]	AC50 [3]	AC50 [4]	AC50 [5]	AC50 (Progesterone receptor)	AC50 [6]
OCc1cc(C(O)CNCCCCCCOCCCCc2ccccc2)ccc1O (centres undefined) [SALMETEROL]	13 µM	> 10 µM	> 30 µM	12 µM	> 30 µM	> 30 µM	
COc1cc2ncnc(Nc3ccc(F)c(Cl)c3)c2cc1NC(=O)/C=C/CN1CCCCC1 [DACOMITINIB ANHYDROUS]						> 30 µM	> 30 µM
O=C1CN=C(c2ccccn2)c2cc(Br)ccc2N1 [BROMAZEPAM]	> 10 µM	> 10 µM	> 10 µM	> 10 µM	> 30 µM	> 10 µM	
CC(=O)OCC(=O)[C@@]1(O)[C@H](C)C[C@H]2[C@@H]3CCC4=CC(=O)C=C[C@]4(C)[C@@]3(F)[C@@H](O)C[C@@]21C [DEXAMETHASONE ACETATE]	> 10 µM	> 10 µM	> 30 µM	> 10 µM	> 30 µM		> 30 µM
C/C(=C\C(=O)OCCCCCCCCC(=O)O)C[C@@H]1OC[C@H](C[C@@H]2O[C@H]2[C@@H](C)[C@H](C)O)[C@@H](O)[C@H]1O [MUPIROCIN]	> 10 µM	> 10 µM	> 10 µM	> 10 µM	> 30 µM	> 10 µM	
O=C1CN=C(c2ccccc2)c2cc([N+](=O)[O-])ccc2N1 [NITRAZEPAM]		> 10 µM	> 10 µM	> 10 µM	> 30 µM	> 10 µM	
NC(=O)CN1CCCC1=O			> 30 µM	> 30 µM	> 30 µM	> 30 µM	> 30 µM
O=C(O)c1ccccc1Nc1cc(Cl)ccc1C(=O)O [LOBENZARIT]	> 30 µM	> 30 µM	> 30 µM	> 30 µM	> 30 µM	> 30 µM	> 30 µM
C[N@+]1(CCF)[C@@H]2CC[C@H]1C[C@@H](OC(=O)C(O)(c1ccccc1)c1ccccc1)C2	> 30 µM	> 30 µM	> 30 µM	> 30 µM	> 30 µM	> 30 µM	> 30 µM
CC(=O)[C@]1(O)Cc2c(O)c3c(c(O)c2[C@@H](O[C@H]2C[C@H](N)[C@H](O)[C@H](C)O2)C1)C(=O)c1ccccc1C3=O [IDARUBICIN]		> 30 µM	> 10 µM		13 µM	5.8 µM	
C=C[C@@]1(C)CC(=O)[C@]2(O)[C@@]3(C)[C@@H](O)CCC(C)(C)[C@@H]3[C@H](O)[C@H](OC(C)=O)[C@@]2(C)O1 [COLFORSIN]	> 30 µM	> 30 µM	> 30 µM	> 30 µM	> 30 µM	> 30 µM	3.5 µM
Cn1c(=O)cc(N2CCC[C@@H](N)C2)n(Cc2ccccc2C#N)c1=O [ALOGLIPTIN]	> 10 µM	> 10 µM	> 30 µM		> 10 µM		
NC1CCN(c2nc3c(cc2F)c(=O)c(C(=O)O)cn3-c2ccc(F)cc2F)C1 (centres undefined) [TOSUFLOXACIN]		> 30 µM	> 30 µM	> 30 µM	> 30 µM	> 30 µM	> 30 µM
O=C(O)CCNC(=O)c1ccccc1 [BETAMIPRON]		> 30 µM	> 30 µM	> 30 µM	> 30 µM	> 30 µM	> 30 µM
CCN(CC)CCN1C(=O)CN=C(c2ccccc2F)c2cc(Cl)ccc21 [FLURAZEPAM]	> 10 µM	> 10 µM	> 30 µM	> 10 µM	20 µM		> 30 µM
Oc1ccc2c(c1)[C@@]13CCCC[C@@]1(O)[C@@H](C2)N(CC1CCC1)CC3 [BUTORPHANOL]	> 30 µM		> 30 µM	> 30 µM	> 30 µM	> 30 µM	> 30 µM
CCN(CC)CCNC(=O)c1cc(S(C)(=O)=O)ccc1OC [TIAPRIDE]		> 30 µM	> 30 µM	29 µM	> 30 µM	> 30 µM	> 30 µM
C#CCOc1ccc(N)cc1C(=O)NCCCC [PARSALMIDE]	> 30 µM	> 30 µM	> 30 µM	> 30 µM	> 30 µM	> 30 µM	
CN(C(=O)c1c(O)c2ccccc2n(C)c1=O)c1ccccc1 [ROQUINIMEX]						> 30 µM	> 30 µM
Cc1ncc2n1-c1ccc(Cl)cc1C(c1ccccc1F)=NC2 [MIDAZOLAM]	> 10 µM	> 10 µM	> 30 µM	> 10 µM	> 30 µM		> 30 µM
CCN1CCCC1CNC(=O)c1cc(S(=O)(=O)CC)c(N)cc1OC (centres undefined) [AMISULPRIDE]	1.5 µM				> 30 µM	> 30 µM	
COc1cc2c(cc1OC)C(CCc1ccc(Cl)cc1)N(C)CC2 (centres undefined) [METHOPHOLINE]	> 10 µM	> 10 µM	> 30 µM	> 10 µM	> 30 µM	> 30 µM	
Nc1cc(-c2ccncc2)c[nH]c1=O [INAMRINONE]		> 10 µM	> 30 µM	> 10 µM	> 30 µM		> 30 µM
CC(=O)[C@@]1(O)CC[C@H]2[C@@H]3C=C(Cl)C4=CC(=O)[C@@H]5C[C@@H]5[C@]4(C)[C@H]3CC[C@@]21C [CYPROTERONE]	> 10 µM	> 10 µM	> 10 µM	> 10 µM	> 30 µM	0.003 µM	

— ChEMBL document CHEMBL5291721, “A preclinical secondary pharmacology resource illuminates target-adverse drug reaction associations of marketed drugs” (Nat Commun, 2023)
